Measurements taken from patent US7473415B2, “Near infrared fluorescent contrast agent and method for fluorescence imaging” (Fuji Photo Film Co., Ltd., priority 2002, dated 2009).

Tested on: mouse colon carcinoma (colon 26 carcinoma)
Experiment: Fluorescence imaging test (Test Example 2), tumor bearing nude mice, excitation 740 nm
Type: in vivo
Procedure: Tumor bearing mice were prepared in the same manner as Test Example 1, and conditions for irradiation was the same as those explained in Test Example 1. Compound 5, Compound 7, and Compound 10 were used as test compounds. Each of the test compounds (0.5 mg/ml) was dissolved in physiological saline or phosphate buffer (pH 7.4) and administered to the mice via a tail vein at the dose of 5.0 mg/Kg. For comparison, the following compound (Compound B, 5 mg/kg, i.v.) was administered to the mice.
Light was generated using a tunable, pulsed, solid state laser system consisting of an optical parametric oscillator (OPO) pumped by the third harmonic of a Nd:Yag laser (Coherent Inc.). An excitation wavelength of λex=740 nm was chosen and guided with an optical fiber to the tumor bearing nude mice. The dye-specific fluorescence exitance was imaged using a filter combination (Corion) and an intensified CCD camera (Roper Scientific.) at different times after dye administration (FIG. 4). Fluorescence imagings were taken before administration, and 1 min, 10 min, 30 min, 60 min, 2 hours, 4 hours, 24 hours after intravenous dye administration via the lateral tail venous at a standard dose of 5 mg/kg. In the first 60 min, the body temperature of the animals was kept at 38° C. with heating pad. Fluorescence imaging properties of the compounds were compared in nude mice tumor models. […]

| SMILES | tumor imaging as compared to the reference compound (Compound B) (5.0 mg/Kg via tail vein) | position of tumor within 1 hour after the administration (5 mg/kg, i.v., FIG. 8) |
| --- | --- | --- |
| CC(/C=C/C=C1/N(CCC(=O)NC(CC(=O)O)C(=O)O)c2ccc3ccccc3c2C1(C)C)=C\C=C\C1=[N+](CCC(=O)NC(CC(=O)O)C(=O)O)c2ccc3ccccc3c2C1(C)C (centres unmarked) [Compound 5] | clear images of tumors at a shorter time | – |
| CC1(C)C(/C=C/C=C/C=C/C=C2/N(CCCCS(=O)(=O)[O-])c3ccc(C(=O)NCC(O)C(O)C(O)C(O)CO)cc3C2(C)C)=[N+](CCCCS(=O)(=O)[O-])c2ccc(C(=O)NCC(O)C(O)C(O)C(O)CO)cc21.[Na+] (centres unmarked) [Compound B] | – | not clear |
